Where two headings read alike, the source gives them in different places. Blank lines part the entries; values can stand above or below the molecule they belong to.
Assays:
[1] = molecular target: human P2X3 receptor (Homo sapiens (Human), UniProt P56373); experiment: Intracellular calcium measurement (FLIPR, Fluo-4) of antagonist activity at human P2X3 receptors; assay type: cell-based
How it was run: (§1)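 Antagonism quantified from peak calcium fluorescence (Fluo-4, FLIPR, 90 sec read) evoked by EC80 α,β-Me-ATP, after a 30 min, 37° C. compound pretreatment in 1% DMSO. Human P2X3- or P2X2/3-expressing cells used; triplicate means fitted for IC50, percent maximal inhibition and Hill coefficient.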

[2] = molecular target: human P2X2/3 receptor (Homo sapiens (Human), UniProt P56373+Q9UBL9); experiment: Intracellular calcium measurement (FLIPR, Fluo-4) of antagonist activity at human P2X2/3 receptors; assay type: cell-based; details: human P2X2/3, FLIPR calcium assay, agonist α,β-Me-ATP; read-out: hP2X2/3 IC50
Chain of human P2X2/3 receptor (P56373 whole entry): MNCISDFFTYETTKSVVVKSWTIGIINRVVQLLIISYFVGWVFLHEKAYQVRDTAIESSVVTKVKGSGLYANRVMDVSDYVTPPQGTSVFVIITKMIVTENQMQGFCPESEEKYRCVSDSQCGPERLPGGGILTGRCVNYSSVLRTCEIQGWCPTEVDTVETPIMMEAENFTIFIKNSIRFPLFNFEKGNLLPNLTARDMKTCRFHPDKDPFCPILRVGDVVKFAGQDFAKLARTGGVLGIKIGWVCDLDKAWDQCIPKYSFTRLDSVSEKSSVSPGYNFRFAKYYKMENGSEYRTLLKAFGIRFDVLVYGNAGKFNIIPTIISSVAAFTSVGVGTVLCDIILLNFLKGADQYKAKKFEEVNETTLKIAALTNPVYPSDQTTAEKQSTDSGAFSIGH
Chain of human P2X2/3 receptor (Q9UBL9 whole entry): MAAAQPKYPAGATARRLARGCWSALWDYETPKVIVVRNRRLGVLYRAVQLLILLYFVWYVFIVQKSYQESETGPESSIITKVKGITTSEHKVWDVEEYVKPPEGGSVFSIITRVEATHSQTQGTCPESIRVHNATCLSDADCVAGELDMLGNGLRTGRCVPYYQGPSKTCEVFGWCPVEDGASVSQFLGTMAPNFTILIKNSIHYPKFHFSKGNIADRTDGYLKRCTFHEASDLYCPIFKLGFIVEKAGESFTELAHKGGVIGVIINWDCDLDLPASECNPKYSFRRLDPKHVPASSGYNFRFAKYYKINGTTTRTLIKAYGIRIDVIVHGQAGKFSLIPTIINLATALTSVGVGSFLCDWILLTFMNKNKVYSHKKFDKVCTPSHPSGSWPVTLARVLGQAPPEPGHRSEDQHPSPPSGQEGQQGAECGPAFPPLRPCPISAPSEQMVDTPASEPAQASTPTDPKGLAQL
How it was run: as §1

[3] = Bidirectional Caco-2 cell permeability assay; assay type: in vitro ADME; details: human
Description: Bidirectional Caco-2 Cell Permeability Assay
Caco-2 cells (purchased from DSMZ Braunschweig, Germany) were seeded at a density of 4.5×10^4 cell per well on 24 well insert plates, 0.4 μm pore size, and grown for 15 days in Dulbecco's modified Eagle medium supplemented with 10% fetal bovine serum, 1% GlutaMAX (100×, purchased from GIBCO), 100 U/ml penicillin, 100 μg/ml streptomycin (purchased from GIBCO) and 1% non-essential amino acids (100×). Cells were maintained at 37° C. in a humidified 5% CO2 atmosphere. Medium was changed every 2-3 days. […] Test compounds were dissolved in DMSO and added to the donor chamber representing either the apical or basolateral compartment in a final concentration of 2 μM. Before and after 2 h incubation at 37° C. samples were taken from both compartments (donor and receiver chamber). Analysis of compound concentrations was done after precipitation with methanol. Analysis was performed by high-pressure liquid chromatography and a tandem mass spectrometric detector using an Agilent 1200 liquid chromatography system and an AB Sciex API4000 triple-quadrupole mass spectrometer applying the parameters, which were optimized to achieve maximum signal intensity of the corresponding test compound. Permeability (Papp) was calculated in the apical to basolateral (A→B) and basolateral to apical (B→A) directions. […] The efflux ratio basolateral (B) to apical (A) was calculated by dividing the Papp B-A by the Papp A-B.
The bidirectional Caco-2 cell permeability assay is a well-established method for predicting the in vivo absorption of drugs across the gut wall by measuring the rate of transport of a compound across the Caco-2 monolayer. Since differentiated Caco-2 cells express functional efflux transport proteins like P-gp, they are also used for identification of compounds with efflux liabilities. Intestinal efflux can decrease systemic plasma concentrations of an orally dosed compound by affecting intestinal absorption of a compound.

[4] = In vitro metabolic stability in liver microsomes (calculation of CL and Fmax); assay type: in vitro ADME, human; details: 1 μM, 0.5 mg/mL protein, maximal oral bioavailability calculated from half-life
Description: In Vitro Metabolic Stability Assays Determination of in vitro metabolic stability in microsomes (including calculation of hepatic in vivo blood clearance (CL) and of maximal oral bioavailability (Fmax))
The metabolic assay was started shortly afterwards by adding the test compound to the incubation at a final volume of 1 mL. Organic solvent in the incubations was limited to […] dimethylsulfoxide (DMSO) and ≤1% acetonitrile. […] Samples were frozen at −20° C. overnight, subsequently centrifuged for 15 minutes at 3000 rpm and the supernatant was analyzed with an Agilent 1200 HPLC-system with LCMS/MS detection.
The half-life of a test compound was determined from the concentration-time plot. From the half-life (kel: slope of concentration-time plot; half-life=ln 2/kel) the intrinsic clearances were calculated. Together with the additional parameters liver blood flow, specific liver weight and microsomal protein content the hepatic in vivo blood clearance (CL) and the maximal oral bioavailability (Fmax) were calculated for the different species.
(§2) Metabolic instability is often the main clearance mechanism of xenobiotica leading to a high CL and low bioavailability which may eventually result in a short half-life and a low exposure after oral administration. Thus, reducing the susceptibility of metabolic degradation usually leads to a more favourable pharmacokinetic profile. When using liver microsomes as incubation matrix main phase I metabolic reactions, typically oxidoreductive reactions by cytochrome P450 enzymes and flavin mono-oxygenases (FMO) and hydrolytic reactions by esterases/amidases/epoxidhydrolases, are described. When the incubation of the test compound is performed in a hepatocyte matrix all potential hepatic metabolic processes (phase I and phase II) are covered.

[5] = tested on: rat hepatocytes; experiment: In vitro metabolic stability in rat hepatocytes; assay type: in vitro ADME, Han Wistar rats; details: 1 μM, 1.0×10^6 cells/mL, maximal oral bioavailability calculated from half-life
Description: Determination of in vitro metabolic stability in rat hepatocytes (including calculation of hepatic in vivo blood clearance (CL))
Hepatocytes from Han Wistar rats were isolated via a 2-step perfusion method. After perfusion, the liver was carefully removed from the rat: the liver capsule was opened and the hepatocytes were gently shaken out into a Petri dish with ice-cold Williams' medium E (WME). The resulting cell suspension was filtered through sterile gaze in 50 mL falcon tubes and centrifuged at 50×g for 3 min at room temperature. The cell pellet was resuspended in 30 mL WME and centrifuged through a Percoll® gradient for 2 times at 100×g. The hepatocytes were washed again with WME and resuspended in medium containing 5% FCS. Cell viability was determined by trypan blue exclusion.
The test compound was added to a final concentration of 1 μM. […] Samples were frozen at −20° C. overnight, subsequently centrifuged for 15 minutes at 3000 rpm and the supernatant was analyzed with an Agilent 1200 HPLC-system with LCMS/MS detection.
The half-life of a test compound was determined from the concentration-time plot. From the half-life (kel: slope of concentration-time plot; half-life=ln 2/kel) the intrinsic clearances were calculated. Together with the additional parameters liver blood flow, amount of liver cells in vivo and in vitro.
as §2

[6] = molecular target: CYP1A2 (Homo sapiens (Human), UniProt P05177); experiment: CYP inhibition assay, CYP1A2
Chain of CYP1A2 (P05177 whole entry): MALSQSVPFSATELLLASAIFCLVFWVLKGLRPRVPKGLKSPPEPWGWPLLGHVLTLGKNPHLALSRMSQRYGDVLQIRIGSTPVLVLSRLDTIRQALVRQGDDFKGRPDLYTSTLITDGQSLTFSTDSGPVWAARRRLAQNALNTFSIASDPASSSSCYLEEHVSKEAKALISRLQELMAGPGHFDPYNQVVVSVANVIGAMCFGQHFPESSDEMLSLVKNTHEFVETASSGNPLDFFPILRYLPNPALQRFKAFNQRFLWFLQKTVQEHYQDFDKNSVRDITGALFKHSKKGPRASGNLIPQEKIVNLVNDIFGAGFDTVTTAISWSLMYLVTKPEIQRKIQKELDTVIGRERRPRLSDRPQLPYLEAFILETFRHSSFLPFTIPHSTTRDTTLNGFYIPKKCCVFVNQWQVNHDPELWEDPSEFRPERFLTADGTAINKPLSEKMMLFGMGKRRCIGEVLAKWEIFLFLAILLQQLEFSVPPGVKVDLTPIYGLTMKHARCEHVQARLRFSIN
Description: (§3) Method Description CYP Inhibition Assay
(§4) Data analysis: The CYP-mediated activities in the presence of inhibitors were expressed as percentages of the corresponding control values. A sigmoid-shaped curve was fitted to the data, and the enzyme inhibition parameter IC50 was calculated using a nonlinear least-squares regression analysis of the plot of percent control activity versus concentration of the test inhibitor.

[7] = molecular target: CYP2C8 (Homo sapiens (Human), UniProt P10632); experiment: CYP inhibition assay, CYP2C8; assay type: in vitro ADME; details: human liver microsomes, probe amodiquine
Chain of CYP2C8 (P10632 whole entry): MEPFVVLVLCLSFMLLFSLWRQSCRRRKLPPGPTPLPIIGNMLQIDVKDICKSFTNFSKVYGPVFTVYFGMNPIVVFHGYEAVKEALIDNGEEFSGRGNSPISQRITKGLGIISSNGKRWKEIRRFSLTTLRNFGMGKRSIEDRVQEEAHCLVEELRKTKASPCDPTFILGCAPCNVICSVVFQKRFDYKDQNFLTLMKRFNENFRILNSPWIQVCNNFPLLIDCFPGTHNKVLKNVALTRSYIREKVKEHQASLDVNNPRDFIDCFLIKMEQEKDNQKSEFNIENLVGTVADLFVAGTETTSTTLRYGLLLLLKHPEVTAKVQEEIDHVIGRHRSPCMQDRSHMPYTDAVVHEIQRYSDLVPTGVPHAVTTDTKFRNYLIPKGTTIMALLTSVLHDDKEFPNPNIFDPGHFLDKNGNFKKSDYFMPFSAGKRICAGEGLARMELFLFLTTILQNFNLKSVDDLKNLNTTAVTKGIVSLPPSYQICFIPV
Description: as §3, §4

[8] = molecular target: CYP2C9 (Homo sapiens (Human), UniProt P11712); experiment: CYP inhibition assay, CYP2C9; assay type: in vitro ADME; details: human liver microsomes, probe diclofenac
Chain of CYP2C9 (P11712 whole entry): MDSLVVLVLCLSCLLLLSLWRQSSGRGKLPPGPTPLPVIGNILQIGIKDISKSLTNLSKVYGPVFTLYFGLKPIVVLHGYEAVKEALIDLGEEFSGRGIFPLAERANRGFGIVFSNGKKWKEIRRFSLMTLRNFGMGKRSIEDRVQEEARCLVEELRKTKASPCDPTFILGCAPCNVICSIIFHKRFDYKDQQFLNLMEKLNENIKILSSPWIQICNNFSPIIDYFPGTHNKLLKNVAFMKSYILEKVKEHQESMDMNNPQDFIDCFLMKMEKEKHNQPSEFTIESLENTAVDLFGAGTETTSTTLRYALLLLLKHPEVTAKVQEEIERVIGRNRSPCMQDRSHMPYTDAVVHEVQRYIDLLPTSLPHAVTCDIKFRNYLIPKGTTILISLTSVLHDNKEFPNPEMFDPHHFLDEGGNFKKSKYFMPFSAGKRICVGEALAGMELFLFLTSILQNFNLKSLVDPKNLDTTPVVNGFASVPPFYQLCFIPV
Description: as §3, §4

[9] = molecular target: CYP2D6 (Homo sapiens (Human), UniProt P10635); experiment: CYP inhibition assay, CYP2D6; assay type: in vitro ADME; details: human liver microsomes, probe dextromethorphan
Chain of CYP2D6 (P10635 whole entry): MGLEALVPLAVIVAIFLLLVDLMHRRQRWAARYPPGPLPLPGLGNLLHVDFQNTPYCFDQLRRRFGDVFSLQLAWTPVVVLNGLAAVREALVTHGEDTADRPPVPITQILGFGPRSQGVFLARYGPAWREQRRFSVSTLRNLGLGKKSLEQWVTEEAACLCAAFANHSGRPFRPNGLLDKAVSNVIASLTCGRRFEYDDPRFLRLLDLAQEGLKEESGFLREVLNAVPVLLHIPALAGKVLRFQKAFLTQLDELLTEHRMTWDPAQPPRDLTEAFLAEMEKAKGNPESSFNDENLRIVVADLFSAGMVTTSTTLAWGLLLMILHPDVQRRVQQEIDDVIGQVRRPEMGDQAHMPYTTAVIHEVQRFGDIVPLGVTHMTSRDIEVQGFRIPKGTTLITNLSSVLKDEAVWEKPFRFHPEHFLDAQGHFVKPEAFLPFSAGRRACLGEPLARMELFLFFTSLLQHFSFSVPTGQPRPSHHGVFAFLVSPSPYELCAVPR
Description: as §3, §4

[10] = molecular target: T1, CYP3A4 (Homo sapiens (Human), UniProt P08684); experiment: CYP inhibition assay, CYP3A4; assay type: in vitro ADME; details: human liver microsomes, probe midazolam
T1 sequence (P08684 whole entry): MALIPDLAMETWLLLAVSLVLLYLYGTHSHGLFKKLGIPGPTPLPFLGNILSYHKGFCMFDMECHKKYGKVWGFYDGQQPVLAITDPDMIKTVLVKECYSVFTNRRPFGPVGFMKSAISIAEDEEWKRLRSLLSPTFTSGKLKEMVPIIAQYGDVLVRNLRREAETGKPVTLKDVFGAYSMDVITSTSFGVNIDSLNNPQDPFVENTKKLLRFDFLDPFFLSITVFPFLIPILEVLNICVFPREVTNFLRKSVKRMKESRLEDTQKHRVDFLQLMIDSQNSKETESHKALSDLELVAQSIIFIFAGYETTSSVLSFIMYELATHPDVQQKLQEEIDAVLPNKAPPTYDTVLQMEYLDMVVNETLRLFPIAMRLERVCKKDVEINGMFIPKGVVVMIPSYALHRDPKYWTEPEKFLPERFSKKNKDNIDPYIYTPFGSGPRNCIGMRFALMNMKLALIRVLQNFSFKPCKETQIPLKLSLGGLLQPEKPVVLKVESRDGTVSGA
Description: as §3, §4

[11] = molecular target: T1, CYP3A4; experiment: Pre-incubation CYP inhibition assay, CYP3A4 (time dependent inhibition); assay type: in vitro ADME; details: human liver microsomes, probe midazolam, 30 min pre-incubation; read-out: CYP3A4 with preincubation IC50
Source text: as §3

[12] = Human liver cytosol stability assay; assay type: in vitro ADME; details: human liver cytosol 1 mg/mL, 1 or 10 μM, 37° C.
Description: Human Liver Cytosol Stability Assay
Method description: Human liver cytosol (pooled, >30 male and female donors) was incubated with individual test compounds in order to compare the extent of depletion of test compound and formation of the respective oxidised metabolite. […] An incubation volume of 1000 μL was used. The test compound was added from a stock solution in acetonitrile at 1 or 10 μM concentration in the incubation. Incubations were performed at 37° C. Reactions were stopped at 0 h and 4 h after incubation by addition of 100 μL acetonitrile to 250 μL of incubation mixture. Precipitated proteins were removed by centrifugation at approximately 3000 rpm. The supernatants were stored at approximately −20° C. until they were analysed. […]
Data analysis: The depletion of the test compound and formation of the corresponding metabolites were determined by decrease or increase of the corresponding peak area in the chromatogram after UV detection at approximately 300 nm 4 h after incubation compared to that at 0 h after incubation. […]

[13] = tested on: taste sensation via the tongue; details: clinical PhII trials, attributed to blockade of P2X2/3 channels; cited from earlier work
[14] = tested on: CFA-induced mechanical hyperalgesia; experiment: Rat CFA in vivo model (mechanical hyperalgesia, paw withdrawal threshold); design: species or system Male Sprague Dawley rats; details: 3 mg/kg p.o., dosed 24 hours after CFA injection
Description: Rat CFA In Vivo Model Male Sprague Dawley rats were used. Mechanical hyperalgesia was induced by injecting 25 μl of Complete Freund's Adjuvant (CFA) into the plantar surface of one hind paw. Mechanical hyperalgesia was measured using the Pressure Application Measurement apparatus (Ugo Basile, Gemonio, Italy). Briefly, a linearly increasing pressure was applied to an area of ˜50 mm2 of the plantar side of the hind paw until a behavioural response (paw withdrawal) was observed or until the pressure reached 1000 gf. The pressure at which the behavioural response occurred was recorded as the “Paw Withdrawal Threshold” (PWT). Both CFA-injected and contralateral PWTs were determined for each rat, in each treatment group and at each time point of the studies. […] Compounds were dosed 24 hours after CFA injection. Data were expressed as the mean PWT for each treatment group and at each time point. Data were analysed by performing a repeated measures two way ANOVA (time×treatment). Planned comparison of means (each versus vehicle) was performed by using a Dunnett's post hoc test, provided that a main effect was detected. […] More preferred examples of the present invention show rat CFA in vivo efficacy in the ‘Paw withdrawal threshold 6 hours post drug’ measure when dosed at 3 mg/kg p.o.

[15] = human P2X3, FLIPR calcium assay, agonist α,β-Me-ATP, read-out: hP2X3 IC50

Chain of human P2X3 receptor (P56373 whole entry): as the sequence (P56373 whole entry) above

Structure (SMILES): Cc1cnc(-c2cc(O[C@H]3CCOC3)cc(C(=O)N[C@H](C)c3cnc(C(F)(F)F)nc3)c2)s1 [Example 26, 3-(5-Methyl-1,3-thiazol-2-yl)-5-[(3S)-tetrahydrofuran-3-yloxy]-N-{(1R)-1-[2-(trifluoromethyl)pyrimidin-5-yl]ethyl}benzamide]
- Human liver microsome Fmax [4]: 67%
- Rat hepatocyte Fmax [5]: 56%
- Test compound turnover after 4 h [12]: 12%

Structure (SMILES): COc1cc(C(C)C)c(Oc2cnc(N)nc2N)cc1S(N)(=O)=O [AF-219]
- effect on taste in treated subjects [13]: leads to taste disturbances

Structure (SMILES): Cc1cnc(-c2cc(OC3COC3)cc(C(=O)N[C@H](C)c3cnc(C(F)(F)F)nc3)c2)s1 [Example 48, 3-(5-Methyl-1,3-thiazol-2-yl)-5-(oxetan-3-yloxy)-N-{(1R)-1-[2-(trifluoromethyl)pyrimidin-5-yl]ethyl}benzamide]
- IC50 [1, 15]: 0.014 µM
- IC50 ([1]; read-out: human P2X3 receptor IC50): 0.014 µM
- IC50 [2]: 0.451 µM
- Paw withdrawal threshold 6 hour-post drug [14]: 817 ± 69 gf (****)

Next, values leading:

- IC50 [1, 15]: 0.009 µM
- IC50 [2]: 1.14 µM
- efflux ratio at 2 h, 2 μM ([3]; Caco-2, pH 7.2, Papp B-A divided by Papp A-B): 1.7
- Papp A→B at 2 h, 2 μM ([3]; Caco-2, apical to basolateral, 2 μM, 2 h, 37° C., pH 7.2): 104 nm/s
- Papp B→A at 2 h, 2 μM ([3]; Caco-2, basolateral to apical, 2 μM, 2 h, 37° C., pH 7.2): 175 nm/s
- Human liver microsome Fmax [4]: 74%
- Rat hepatocyte Fmax [5]: 51%
Structure (SMILES): CCc1cnc(-c2cc(OC[C@H]3CN(C)CCO3)cc(C(=O)N[C@H](C)c3ccc(C(F)(F)F)nn3)c2)s1 [Example 419, 3-(5-ethyl-1,3-thiazol-2-yl)-5-{[(2R)-4-methylmorpholin-2-yl]methoxy}-N-{(1R)-1-[6-(trifluoromethyl)pyridazin-3-yl]ethyl}benzamide]

- Human liver microsome Fmax [4]: 100%
- Rat hepatocyte Fmax [5]: 53%
- IC50 [6]: > 20 µM
- IC50 [7]: > 20 µM
- IC50 [8]: > 20 µM
- IC50 [9]: > 20 µM
- IC50 [10]: > 20 µM
- IC50 [11]: > 20 µM
Structure (SMILES): Cc1cnc(-c2cc(OC(C)C(C)O)cc(C(=O)N[C@H](C)c3cnc(C(F)(F)F)nc3)c2)s1 (single isomer, unassigned) [Example 163]

— patent US10174016B2 (BAYER AKTIENGESELLSCHAFT, priority 2014, dated 2019)
